# Measurements as given in ChEMBL document CHEMBL1201862, “PubChem BioAssay data set” (2004).
#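 Dose response: 5 concentrations. Exposure: 48 h. Format: 96-well plates. Endpoint: linear interpolation; highest concentration if not reached. GI50 = concentration required for 50% inhibition of growth.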 Calls of active or inactive are those of the source. Rule as the data show it: active = GI50 up to about 1.1 µM and inactive = higher.
# Tests used:
# Assay in all cases: DTP human tumour cell line panel, 48 h
# [1] = system: Hs-578T
# [2] = system: UACC-257
# [3] = system: HCT-116
# [4] = system: HOP-62
# [5] = system: HL-60
# [6] = system: SK-OV-3
# [7] = system: A498
# [8] = system: SK-MEL-2
# [9] = system: MDA-N
# [10] = system: COLO 205
# [11] = system: RXF 393
# [12] = system: BT-549
# [13] = system: 786-0
# [14] = system: NCI-H522
# [15] = system: OVCAR-5
# [16] = system: EKVX
# [17] = system: LOX IMVI
# [18] = system: SK-MEL-5
# [19] = system: OVCAR-8
# [20] = system: K562
# [21] = system: U-251
# [22] = system: SNB-75
# [23] = system: NCI/ADR-RES
# [24] = system: M14
# [25] = system: SF-295
# [26] = system: ACHN
# [27] = system: SK-MEL-28
# [28] = system: NCI-H226
# [29] = system: T47D
# [30] = system: HOP-92
# [31] = system: SNB-19
# [32] = system: SW-620
# [33] = system: SN12C
# [34] = system: Malme-3M
# [35] = system: MOLT-4
# [36] = system: MDA-MB-231
# [37] = system: PC-3
# [38] = system: MDA-MB-435
# [39] = system: UACC-62
# [40] = system: KM12
# [41] = system: NCI-H23
# [42] = system: OVCAR-3
# [43] = system: CAKI-1
# [44] = system: OVCAR-4
# [45] = system: CCRF-CEM
# [46] = system: SF-268
# [47] = system: UO-31
# [48] = system: A549
# [49] = system: RPMI-8226
# [50] = system: DU-145
# [51] = system: HCT-15
# [52] = system: TK-10
# [53] = system: IGROV-1
# [54] = system: HT-29
# [55] = system: NCI-H460
# [56] = system: SF-539
# [57] = system: SR
# [58] = system: MCF7
structure (smiles),measurement,setting,value
C[C@@H](CO)C1=C(O)C(=O)c2c(ccc3c2CCCC3(C)C)C1=O,GI50,[1],51.2 µM (inactive)
same,GI50,[2],32.1 µM (inactive)
same,GI50,[3],45.5 µM (inactive)
same,GI50,[4],29.2 µM (inactive)
same,GI50,[5],< 0.01 µM (active)
same,GI50,[6],61.9 µM (inactive)
same,GI50,[7],33 µM (inactive)
same,GI50,[8],23.2 µM (inactive)
same,GI50,[9],45.1 µM (inactive)
same,GI50,[10],38.3 µM (inactive)
same,GI50,[11],43.8 µM (inactive)
same,GI50,[12],37.1 µM (inactive)
same,GI50,[13],55.3 µM (inactive)
same,GI50,[14],15.5 µM (inactive)
same,GI50,[15],36.6 µM (inactive)
same,GI50,[16],33.5 µM (inactive)
same,GI50,[17],59.4 µM (inactive)
same,GI50,[18],30.5 µM (inactive)
same,GI50,[19],35.2 µM (inactive)
same,GI50,[20],30.3 µM (inactive)
same,GI50,[21],14.1 µM (inactive)
same,GI50,[22],40 µM (inactive)
same,GI50,[23],38.8 µM (inactive)
same,GI50,[24],17.7 µM (inactive)
same,GI50,[25],30.4 µM (inactive)
same,GI50,[26],18.5 µM (inactive)
same,GI50,[27],30.8 µM (inactive)
same,GI50,[28],28.2 µM (inactive)
same,GI50,[29],50.6 µM (inactive)
same,GI50,[30],21.2 µM (inactive)
same,GI50,[31],25.7 µM (inactive)
same,GI50,[32],28.3 µM (inactive)
same,GI50,[33],54.8 µM (inactive)
same,GI50,[34],15.9 µM (inactive)
same,GI50,[35],42.1 µM (inactive)
same,GI50,[36],61.4 µM (inactive)
same,GI50,[37],31.8 µM (inactive)
same,GI50,[38],26.8 µM (inactive)
same,GI50,[39],23.2 µM (inactive)
same,GI50,[40],37.2 µM (inactive)
same,GI50,[41],22.1 µM (inactive)
same,GI50,[42],28.2 µM (inactive)
same,GI50,[43],44.9 µM (inactive)
same,GI50,[44],46.7 µM (inactive)
same,GI50,[45],3.33 µM (inactive)
same,GI50,[46],32.2 µM (inactive)
same,GI50,[47],33.3 µM (inactive)
same,GI50,[48],32.1 µM (inactive)
same,GI50,[49],23 µM (inactive)
same,GI50,[50],47 µM (inactive)
same,GI50,[51],29 µM
same,GI50,[52],45.4 µM (inactive)
same,GI50,[53],37.2 µM (inactive)
same,GI50,[54],35.5 µM (inactive)
C=C1CC(C#N)(C#N)[C@@H]2CC3CCCC3[C@H]12.C=C1CC(C#N)(C#N)[C@H]2C3CCCC3C[C@@H]12 (stereo not given in full),GI50,[1],35.9 µM (inactive)
same,GI50,[3],4.99 µM (inactive)
same,GI50,[4],10 µM (inactive)
same,GI50,[55],10 µM (inactive)
same,GI50,[5],20.5 µM (inactive)
same,GI50,[6],25.4 µM (inactive)
same,GI50,[7],19.7 µM (inactive)
same,GI50,[56],19.9 µM (inactive)
same,GI50,[11],22.1 µM (inactive)
same,GI50,[12],25.9 µM (inactive)
same,GI50,[13],10.5 µM (inactive)
same,GI50,[15],10 µM (inactive)
same,GI50,[16],24.2 µM (inactive)
same,GI50,[18],24.7 µM (inactive)
same,GI50,[19],17.8 µM (inactive)
same,GI50,[20],16.8 µM (inactive)
same,GI50,[21],20 µM (inactive)
same,GI50,[23],23.9 µM (inactive)
same,GI50,[24],15.6 µM (inactive)
same,GI50,[25],18.3 µM (inactive)
same,GI50,[26],24.8 µM (inactive)
same,GI50,[27],21.2 µM (inactive)
same,GI50,[28],25.3 µM (inactive)
same,GI50,[29],31.9 µM (inactive)
same,GI50,[30],11.3 µM (inactive)
same,GI50,[31],29.8 µM (inactive)
same,GI50,[57],14.6 µM (inactive)
same,GI50,[32],15 µM (inactive)
same,GI50,[33],15.7 µM (inactive)
same,GI50,[35],13.1 µM (inactive)
same,GI50,[36],22 µM (inactive)
same,GI50,[37],30.1 µM (inactive)
same,GI50,[38],19.3 µM (inactive)
same,GI50,[39],25.9 µM (inactive)
same,GI50,[40],20.1 µM (inactive)
same,GI50,[41],10 µM (inactive)
same,GI50,[42],19.3 µM (inactive)
same,GI50,[45],10 µM (inactive)
same,GI50,[46],23.3 µM (inactive)
same,GI50,[47],20.7 µM (inactive)
same,GI50,[48],10 µM (inactive)
same,GI50,[50],38.4 µM (inactive)
same,GI50,[51],15.9 µM
same,GI50,[52],35.1 µM (inactive)
same,GI50,[53],27.9 µM (inactive)
same,GI50,[54],14 µM (inactive)
same,GI50,[58],16.3 µM (inactive)
O=C1c2ccccc2C(=O)c2cc(/N=N/c3c(O)ccc4ccccc34)ccc21,GI50,[1],27.7 µM (inactive)
same,GI50,[2],> 100 µM (inactive)
same,GI50,[3],> 100 µM (inactive)
same,GI50,[4],30.2 µM (inactive)
same,GI50,[6],> 100 µM (inactive)
same,GI50,[7],> 100 µM (inactive)
same,GI50,[8],> 100 µM (inactive)
same,GI50,[9],> 100 µM (inactive)
same,GI50,[10],> 100 µM (inactive)
same,GI50,[11],> 100 µM (inactive)
same,GI50,[12],> 100 µM (inactive)
same,GI50,[13],> 100 µM (inactive)
same,GI50,[14],> 100 µM (inactive)
same,GI50,[15],> 100 µM (inactive)
same,GI50,[16],89.7 µM (inactive)
same,GI50,[17],> 100 µM (inactive)
same,GI50,[18],> 100 µM (inactive)
same,GI50,[19],> 100 µM (inactive)
same,GI50,[20],> 100 µM (inactive)
same,GI50,[21],56.4 µM (inactive)
same,GI50,[22],> 100 µM (inactive)
same,GI50,[23],> 100 µM (inactive)
same,GI50,[24],> 100 µM (inactive)
same,GI50,[25],> 100 µM (inactive)
same,GI50,[26],> 100 µM (inactive)
same,GI50,[27],> 100 µM (inactive)
same,GI50,[28],> 100 µM (inactive)
same,GI50,[29],> 100 µM (inactive)
same,GI50,[30],> 100 µM (inactive)
same,GI50,[31],> 100 µM (inactive)
same,GI50,[57],> 100 µM (inactive)
same,GI50,[32],> 100 µM (inactive)
same,GI50,[33],> 100 µM (inactive)
same,GI50,[34],> 100 µM (inactive)
same,GI50,[35],> 100 µM (inactive)
same,GI50,[36],> 100 µM (inactive)
same,GI50,[37],> 100 µM (inactive)
same,GI50,[38],> 100 µM (inactive)
same,GI50,[39],> 100 µM (inactive)
same,GI50,[40],> 100 µM (inactive)
same,GI50,[41],> 100 µM (inactive)
same,GI50,[42],> 100 µM (inactive)
same,GI50,[43],> 100 µM (inactive)
same,GI50,[44],> 100 µM (inactive)
same,GI50,[45],> 100 µM (inactive)
same,GI50,[46],30.1 µM (inactive)
same,GI50,[47],> 100 µM (inactive)
same,GI50,[48],> 100 µM (inactive)
same,GI50,[49],> 100 µM (inactive)
same,GI50,[50],> 100 µM (inactive)
same,GI50,[51],> 100 µM
same,GI50,[52],> 100 µM (inactive)
same,GI50,[53],> 100 µM (inactive)
same,GI50,[54],> 100 µM (inactive)
